Several values for one entry are separate records, joined by “and”; a condition that tells them apart may be missing. Identical values can stand only once.
target: Nonstructural protein 3 (Zika virus, UniProt A0A024AXB9); assay: Functional biochemical assay to identify treatments for viral infectious disease that targets Zika NS2B-NS3 protease. Utilizing a direct enzyme activity measurement method, reading the fluorescence intensity is used to characterize the relative potency of inhibitors as IC50.; design: species or system PRVABC59
Sequence (A0A024AXB9 whole entry): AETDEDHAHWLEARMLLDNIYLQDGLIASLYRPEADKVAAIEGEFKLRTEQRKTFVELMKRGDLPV

IC50	SMILES
49.6 µM	COc1cc2c(CN3CCC(c4cscn4)CC3)c[nH]c2cc1Cl
> 25 µM	Cc1[nH]c2ccccc2c1[C@H]1CCN(C(=O)Nc2ccc3c(c2)CNC3)C1
> 99.5 µM	NCc1cccc(NC(=O)[C@@H](NC(=O)OCc2ccccc2)c2cccc(-c3cncnc3)c2)c1
39.4 µM	O=C(N[C@@H](C(=O)NCc1cccc2c1CCNC2)c1ccc(OCc2ccccc2)cc1)OCc1ccccc1
81.3 µM	Cc1cc(CN)cc(C)c1NS(=O)(=O)c1ccc(Oc2ccccc2Cl)cc1
21 µM	CCc1[nH]c2ccccc2c1CN1CCC(c2cscn2)CC1
> 99.5 µM	CCn1ccnc(N2CC[C@H](C(C)(C)C)C2)c1=O
> 99.5 µM	COC(=O)[C@]12CC[C@](C(=O)Nc3cccc(CN)c3)(COC1)C2
77.5 µM	COCCOc1ccc(Cl)cc1C(=O)Nc1cccc(CN)c1
7.05 µM	CS(=O)(=O)NC(=O)c1cc(CN)cc(NC(=O)c2cc(Cl)cc(NC(=O)OCc3ccccc3)c2)c1
> 99.5 µM	O=C(Nc1cccc(-n2nn[nH]c2=O)c1)c1cc(Cl)cc(N2CCCC2=O)c1
> 99.5 µM	CNc1ncc(C(F)(F)F)cc1-c1ccc2[nH]c(C(=O)O)cc2c1
> 99.5 µM	CCn1cc(-c2ccc3ocnc3c2)nc(N2CC[C@@H](CO)C2)c1=O
64.4 µM	NCc1cccc(NC(=O)[C@H](NC(=O)OCc2ccccc2)c2ccc(Br)c(F)c2)c1
> 25 µM	Cn1nc([C@H](Nc2cc([C@H]3CCOC3)ccn2)C(F)(F)F)cc1C1CC1
> 99.5 µM	O=C(Nc1cc(Cl)cc(C(=O)Nc2ccnc(C(=O)O)c2)c1)OCc1ccccc1
> 99.5 µM	Cc1c(C(=O)Nc2cc(C#N)c3ccccc3n2)cc(C2CC2)n1C
> 25 µM	Cc1c(C(=O)Nc2cc(CCCN)ccn2)cnn1C1CC1
> 99.5 µM	COC[C@@H](C)CNC(=O)c1cc(Cl)ccc1NS(=O)(=O)c1ccc(Oc2ccccc2Cl)cc1
> 99.5 µM	NCc1cccc(NC(=O)[C@@H](NC(=O)OCc2ccccc2)c2ccc(-c3cncnc3)cc2)c1
> 25 µM	O=C(Nc1ccc2c(c1)CNC2)N1CCC[C@H]1c1nc2ncccc2[nH]1
> 99.5 µM	NC(=O)c1cccc(NC(=O)[C@@H](NC(=O)c2ccc(Oc3ccc(C(F)(F)F)cc3)cc2)c2ccc(OCc3ccccc3)cc2)c1
0.034 µM and 0.022 µM	Cn1c(=O)[nH]c2c(C(=O)Nc3ccc4c(c3)CNC4)cc(Br)cc21
0.369 µM	CS(=O)(=O)N1CC[C@]2(C1)C(=O)Nc1cccc(C(=O)Nc3ccc4c(c3)CNC4)c12
> 99.5 µM	CCOc1ccc([C@@H](NC(=O)OCc2ccccc2)C(=O)Nc2cccc(CN)c2)cc1
> 99.5 µM	O=c1c2ccccc2ncn1CCCn1cnc2ccccc2c1=O

IC50	SMILES
> 99.5 µM	CCNC(=O)c1ccc2nc(N3CC[C@H](CO)C3)c(=O)n(CC)c2c1
61.6 µM	Cc1cc(C(=O)Nc2cccc(CN)c2)c2cnn(-c3ccc(F)cc3)c2n1
> 25 µM	O=C1Cc2c(cccc2C(=O)Nc2cnc(OC3CCC3)nc2)N1
0.036 µM and 0.031 µM	CCCNC(=O)[C@H](Nc1ccc2c(c1)CNC2)c1cc(Cl)cc2[nH]ncc12
> 99.5 µM	CC(C)Oc1cncc(N2CC[C@@H](CO)C2)c1
> 99.5 µM	CCNC(=O)[C@@H](NC(=O)OCc1ccccc1)c1ccc(OCc2ccccc2)cc1
> 99.5 µM	Cc1c[nH]nc1CN1CCC(c2cscn2)CC1
> 99.5 µM	Cc1cc(C(=O)Nc2cccc(CN)c2)c2sc(N)nc2n1
3.71 µM	Cc1n[nH]c2nc(Cl)cc(C(=O)Nc3ccc4c(c3)CNC4)c12
0.099 µM and 0.09 µM	O=C(Nc1ccc2c(c1)CNC2)c1cc(F)cc2c1CCC2
> 99.5 µM	O=C(N[C@@H](C(=O)NC1CNC1)c1ccc(OCc2ccccc2)cc1)OCc1ccccc1
> 99.5 µM	FC(F)(F)c1ccccc1C1CCN(Cc2c[nH]c3ccccc23)CC1
> 99.5 µM	O=Cc1ccc(F)c(C(=O)N2CCN(C3=NCCCN3)CC2)c1
> 99.5 µM	O=C(O)c1ccc(C2CCN(Cc3c[nH]c4ccccc34)CC2)cc1
> 99.5 µM	Cn1cc(NS(=O)(=O)c2ccc(Oc3ccccc3Cl)cc2)c(C(=O)O)n1
0.064 µM and 0.087 µM	CCOC(=O)[C@H](Nc1ccc2c(c1)CNC2)c1cc(Cl)cc(C2CC2)c1
> 99.5 µM	O=C(O)CN(c1ccc(Cl)cc1)S(=O)(=O)c1ccc(Oc2ccccc2Cl)cc1
> 25 µM	O=C1Cc2c(cccc2C(=O)Nc2ccc3c(c2)C(=O)OC3)N1
> 99.5 µM	O=c1[nH]c(CSc2ccccc2Cl)nc2ccsc12
> 99.5 µM	CCNC(=O)c1ccc2c(c1)nc(N1CC[C@H](CO)C1)c(=O)n2CC
33.9 µM and 39.5 µM	NCc1cccc(NC(=O)C[C@H](NC(=O)OCc2ccccc2)c2ccc(OC(F)(F)F)cc2)c1
44.3 µM	O=C(Nc1cc(Cl)cc(C(=O)Nc2ccc([C@@H]3C[C@H]3C(=O)O)cc2)c1)OCc1ccccc1
26.4 µM	CCc1cc(Br)cc2c(Cc3ccc(-c4nnn[nH]4)cc3)c[nH]c12
1.26 µM	CC(C)O[C@]1(C)C(=O)Nc2cc(F)cc(C(=O)Nc3ccc4c(c3)CNC4)c21
> 99.5 µM	NCCNC(=O)c1cc(Cl)cc(NC(=O)OCc2ccccc2)c1
> 99.5 µM	NCc1cccc(NC(=O)c2cc(NC(=O)OCc3ccccc3)cc(C(N)=O)c2)c1

IC50	SMILES
23.3 µM	CS(=O)(=O)c1cc(CN)cc(NC(=O)c2cc(Cl)cc(NC(=O)OCc3ccccc3)c2)c1
> 99.5 µM	Cn1ccnc(N2CCC(NS(=O)(=O)c3ccc(Cl)cc3C(=O)O)CC2)c1=O
> 99.5 µM	CN(C)[C@@H]1C[C@H](C(=O)Nc2cccc(CN)c2)CN(C(=O)OCc2ccccc2)C1
> 99.5 µM	C[C@H](C(=O)O)c1cccc(NC(=O)c2cc(Cl)cc(NC(=O)OCc3ccccc3)c2)c1
> 99.5 µM	NCc1cccc(NC(=O)c2cc(Cl)cc(Cl)c2OCc2ccccc2)c1
0.097 µM and 0.073 µM	COC(=O)CNC(=O)[C@H](Nc1ccc2c(c1)CNC2)c1cc(Cl)cc(C2CC2)c1
0.03 µM and 0.021 µM	O=C(NC1CCOCC1)[C@H](Nc1ccc2c(c1)CNC2)c1cc(Cl)cc2[nH]ncc12
> 99.5 µM	CCn1ccnc(N2C[C@@H](O)[C@H](c3c[nH]c4ccccc34)C2)c1=O
43.6 µM	COc1cc(Cl)cc(C(=O)O)c1NS(=O)(=O)c1ccc(Oc2ccccc2Cl)cc1
58.2 µM	NC[C@H]1CC[C@@H](CNC(=O)[C@@H](NC(=O)OCc2ccccc2)c2ccc(OCc3ccccc3)cc2)CC1
> 99.5 µM	CCn1c(=O)c(N2CCC[C@H]2c2cncc(Br)c2)nc2ccccc21
> 99.5 µM	NCc1cccc(NC(=O)[C@H]2CCOC3(CCC3)C2)c1
> 25 µM	Cc1nc2ccc(C(=O)Nc3ccc4c(c3)CNC4)cc2s1
> 99.5 µM	CCn1ccnc(N2CCC[C@H]2C(=O)O)c1=O
20.6 µM	NCc1cccc(NC(=O)c2cc(Cl)cc(OC3CC3)c2)c1
> 99.5 µM	CN1CCN(Cc2ccccc2CNC(=O)[C@@H](NC(=O)OCc2ccccc2)c2ccc(OCc3ccccc3)cc2)CC1
> 99.5 µM	CN(C)Cc1ccc(C(=O)Nc2cc(Cl)cc(C(=O)NC(C)(C)CO)c2)[nH]1
> 25 µM	O=C(Nc1cc(-c2cccnc2)ccn1)c1cccc(C2CC2)c1
1.14 µM	C[C@]1(OCCO)C(=O)Nc2cc(F)cc(C(=O)Nc3ccc4c(c3)CNC4)c21
> 25 µM	O=C(Nc1ccc2c(c1)CNC2)c1nc(C(F)(F)F)cs1
> 25 µM	O=C(Nc1ccc2c(c1)CNC2)[C@H]1C[C@@H]1c1ccccc1
> 99.5 µM	N[C@@H]1CC[C@H](NC(=O)[C@@H](NC(=O)OCc2ccccc2)c2ccc(OCc3ccccc3)cc2)C1
1.48 µM	O=C1Cc2c(cccc2C(=O)Nc2ccc3c(c2)CNCCO3)N1
> 25 µM	Cc1c(C(=O)Nc2cc(C(=O)N3CC[C@H](C(N)=O)C3)ccn2)cc(C2CC2)n1C
16.2 µM	Cn1cnc2nc(Cl)cc(C(=O)Nc3ccc4c(c3)CNC4)c21
> 99.5 µM	Cc1ccc2c(c1)CN(C(=O)c1ccc(C3(CN)CC3)cc1)C(C)(C)C2

IC50	SMILES
> 99.5 µM	NCc1cccc(NC(=O)[C@@H]2CCCCN2)c1
94.2 µM	NCc1ccncc1NS(=O)(=O)c1ccc(Oc2ccccc2Cl)cc1
> 25 µM	CC(C)c1nccn1C[C@H]1CCCN1C(=O)Nc1ccc2c(c1)CNC2
> 99.5 µM	NCc1cccc(NC(=O)c2c(C(F)(F)F)nc3n2CCCC3)c1
> 99.5 µM	Cc1ccc([C@@H](NC(=O)OCc2ccccc2)C(=O)Nc2cccc(CN)c2)cc1C
> 99.5 µM	CC(C)C[C@H](NC(=O)c1cc(Cl)cc(NC(=O)OCc2ccccc2)c1)c1nnn[nH]1
> 99.5 µM	O=C(Nc1cc(Cl)cc(C(=O)NC[C@@H]2CNCCC2(F)F)c1)OCc1ccccc1
> 99.5 µM	COCC(=O)N1CCC([C@@H](NC(=O)OCc2ccccc2)C(=O)Nc2cccc(CN)c2)CC1
> 99.5 µM	CNC(=O)C[C@H](Nc1ccccn1)c1cc(Cl)cc(CN)c1
63.9 µM	Cc1c(F)cc(C(=O)Nc2cccc(CN)c2)c(F)c1NC(=O)OCc1ccccc1
> 99.5 µM	CN(C(=O)c1ccc2c(c1)[C@H](CN)CCC2)C1CCN(CC(F)F)CC1
> 25 µM	C[C@H]1CC2(CN1C(=O)Nc1ccc3c(c1)CNC3)CC(F)(F)C2
> 99.5 µM	CCn1c(=O)c(N2C[C@H]3C[C@H]2C(F)(F)C3)nc2ccccc21
> 99.5 µM	O=C(O)c1cccc(CCc2cc(Cl)cc3[nH]ncc23)c1
> 99.5 µM	CNC(=O)CN1CCC([C@@H](NC(=O)OCc2ccccc2)C(=O)Nc2cccc(CN)c2)CC1
> 99.5 µM	Cc1nccn1CCOc1cccc([C@H](NC(=O)OCc2ccccc2)C(=O)Nc2cccc(CN)c2)c1
51.3 µM	NCc1cccc(CNC(=O)c2cc(Cl)cc(NC(=O)OCc3ccccc3)c2)c1
> 99.5 µM	Cc1oc(C2CC2)nc1C(=O)Nc1cc(CCCN)ccn1
> 25 µM	Cc1c(C(=O)Nc2cc(C(=O)N3CCOCC3)ccn2)cc(C2CC2)n1C
0.038 µM and 0.03 µM and 0.026 µM	O=C(Nc1cc2c(c(C3=CCS(=O)(=O)CC3)c1)CNC2)c1cc(F)cc2[nH]ncc12
> 99.5 µM	NS(=O)(=O)c1cccc(-c2ccc(S(=O)(=O)Nc3ccc(Cl)cc3C(=O)O)cc2)c1
> 99.5 µM	O=C(Nc1cc(Cl)cc(C(=O)Nc2cccc([C@H]3CNCCO3)c2)c1)OCc1ccccc1
> 99.5 µM	O=C(Nc1cc(Cl)cc(S(=O)(=O)Nc2cccc(-n3nn[nH]c3=O)c2)c1)OCc1ccccc1
12.8 µM	CS(=O)(=O)Nc1cccc(C(=O)Nc2ccc3c(c2)CNC3)c1
22.8 µM	NCc1ccc(-c2ccc(OCC3CCNCC3)nc2-c2ccc(-c3ccoc3)cc2)cc1

— ChEMBL document CHEMBL5604062, “ASAP - ZIKV NS2B-NS3 protease fluorescence dose response” (2024)
